According to PubChem BioAssay (NCI):
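1) Cells in 96-well plates. 2) Compound, 48 h, 5 concentrations. 3) Linear interpolation between surrounding doses. 4) Unreached endpoint = highest concentration. TGI: total growth inhibition.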

What was measured:
Assay in all cases: DTP human tumour cell line panel, 48 h
786-0 renal = test system: 786-0 renal
A498 renal = test system: A498 renal
A549 NSCLC = test system: A549 NSCLC
ACHN renal = test system: ACHN renal
BT-549 breast = test system: BT-549 breast
CAKI-1 renal = test system: CAKI-1 renal
CCRF-CEM leukemia = test system: CCRF-CEM leukemia
COLO 205 colon = test system: COLO 205 colon
DU-145 prostate = test system: DU-145 prostate
EKVX NSCLC = test system: EKVX NSCLC
HCC-2998 colon = test system: HCC-2998 colon
HCT-116 colon = test system: HCT-116 colon
HCT-15 colon = test system: HCT-15 colon
HL-60(TB) leukemia = test system: HL-60(TB) leukemia
HOP-62 NSCLC = test system: HOP-62 NSCLC
HOP-92 NSCLC = test system: HOP-92 NSCLC
HS 578T breast = test system: HS 578T breast
HT29 colon = test system: HT29 colon
IGROV1 ovarian = test system: IGROV1 ovarian
K-562 leukemia = test system: K-562 leukemia
KM12 colon = test system: KM12 colon
LOX IMVI melanoma = test system: LOX IMVI melanoma
M14 melanoma = test system: M14 melanoma
MALME-3M melanoma = test system: MALME-3M melanoma
MCF7 breast = test system: MCF7 breast
MDA-MB-231 breast = test system: MDA-MB-231 breast
MDA-MB-435 = test system: MDA-MB-435
MDA-N = test system: MDA-N
MOLT-4 leukemia = test system: MOLT-4 leukemia
NCI-H226 lung = test system: NCI-H226 lung
NCI-H23 lung = test system: NCI-H23 lung
NCI-H460 lung = test system: NCI-H460 lung
NCI-H522 lung = test system: NCI-H522 lung
NCI/ADR-RES ovarian = test system: NCI/ADR-RES ovarian
OVCAR-3 ovarian = test system: OVCAR-3 ovarian
OVCAR-4 ovarian = test system: OVCAR-4 ovarian
OVCAR-5 ovarian = test system: OVCAR-5 ovarian
OVCAR-8 ovarian = test system: OVCAR-8 ovarian
PC-3 prostate = test system: PC-3 prostate
RPMI-8226 leukemia = test system: RPMI-8226 leukemia
RXF 393 renal = test system: RXF 393 renal
SF-268 CNS = test system: SF-268 CNS
SF-295 CNS = test system: SF-295 CNS
SF-539 CNS = test system: SF-539 CNS
SK-MEL-2 melanoma = test system: SK-MEL-2 melanoma
SK-MEL-28 melanoma = test system: SK-MEL-28 melanoma
SK-MEL-5 melanoma = test system: SK-MEL-5 melanoma
SK-OV-3 ovarian = test system: SK-OV-3 ovarian
SN12C renal = test system: SN12C renal
SNB-19 CNS = test system: SNB-19 CNS
SNB-75 CNS = test system: SNB-75 CNS
SR leukemia = test system: SR leukemia
SW-620 colon = test system: SW-620 colon
T-47D breast = test system: T-47D breast
TK-10 renal = test system: TK-10 renal
U251 CNS = test system: U251 CNS
UACC-257 melanoma = test system: UACC-257 melanoma
UACC-62 melanoma = test system: UACC-62 melanoma
UO-31 renal = test system: UO-31 renal

Q: How did the TGI (786-0 renal) turn out when `Cc1cc(S(=O)(=O)Nc2nnc3c(Cl)cc(C(F)(F)F)cn23)c(S)cc1Cl` was run?
A: > 100 µM

Q: And the TGI (A498 renal)?
A: > 100 µM

Q: What about the TGI (A549 NSCLC) of the same molecule?
A: > 100 µM

Q: What about the TGI (ACHN renal) of the same molecule?
A: > 100 µM

Q: And the TGI (BT-549 breast)?
A: > 100 µM

Q: And the TGI (CAKI-1 renal)?
A: > 100 µM

Q: And the TGI (CCRF-CEM leukemia)?
A: > 100 µM

Q: And the TGI (COLO 205 colon)?
A: > 100 µM

Q: What about the TGI (DU-145 prostate) of the same molecule?
A: > 100 µM

Q: What about the TGI (EKVX NSCLC) of the same molecule?
A: > 100 µM

Q: What about the TGI (HCC-2998 colon) of the same molecule?
A: > 100 µM

Q: What about the TGI (HCT-116 colon) of the same molecule?
A: > 100 µM

Q: And the TGI (HCT-15 colon)?
A: > 100 µM

Q: What about the TGI (HL-60(TB) leukemia) of the same molecule?
A: > 100 µM

Q: And the TGI (HOP-62 NSCLC)?
A: > 100 µM

Q: And the TGI (HOP-92 NSCLC)?
A: > 100 µM

Q: What about the TGI (HS 578T breast) of the same molecule?
A: > 100 µM

Q: And the TGI (HT29 colon)?
A: > 100 µM

Q: What about the TGI (IGROV1 ovarian) of the same molecule?
A: > 100 µM

Q: What about the TGI (K-562 leukemia) of the same molecule?
A: > 100 µM

Q: And the TGI (KM12 colon)?
A: > 100 µM

Q: And the TGI (LOX IMVI melanoma)?
A: > 100 µM

Q: And the TGI (M14 melanoma)?
A: > 100 µM

Q: And the TGI (MALME-3M melanoma)?
A: > 100 µM

Q: And the TGI (MCF7 breast)?
A: > 100 µM

Q: And the TGI (MDA-MB-231 breast)?
A: > 100 µM

Q: What about the TGI (MDA-MB-435) of the same molecule?
A: > 100 µM

Q: And the TGI (MDA-N)?
A: > 100 µM

Q: And the TGI (MOLT-4 leukemia)?
A: > 100 µM

Q: What about the TGI (NCI-H226 lung) of the same molecule?
A: > 100 µM

Q: And the TGI (NCI-H23 lung)?
A: > 100 µM

Q: What about the TGI (NCI-H460 lung) of the same molecule?
A: > 100 µM

Q: And the TGI (NCI-H522 lung)?
A: > 100 µM

Q: And the TGI (NCI/ADR-RES ovarian)?
A: > 100 µM

Q: What about the TGI (OVCAR-3 ovarian) of the same molecule?
A: > 100 µM

Q: What about the TGI (OVCAR-4 ovarian) of the same molecule?
A: > 100 µM

Q: What about the TGI (OVCAR-5 ovarian) of the same molecule?
A: > 100 µM

Q: And the TGI (OVCAR-8 ovarian)?
A: > 100 µM

Q: And the TGI (PC-3 prostate)?
A: > 100 µM

Q: And the TGI (RPMI-8226 leukemia)?
A: > 100 µM

Q: And the TGI (RXF 393 renal)?
A: > 100 µM

Q: What about the TGI (SF-268 CNS) of the same molecule?
A: > 100 µM

Q: And the TGI (SF-295 CNS)?
A: > 100 µM

Q: And the TGI (SF-539 CNS)?
A: > 100 µM

Q: And the TGI (SK-MEL-2 melanoma)?
A: > 100 µM

Q: What about the TGI (SK-MEL-28 melanoma) of the same molecule?
A: > 100 µM

Q: What about the TGI (SK-MEL-5 melanoma) of the same molecule?
A: > 80.6 µM

Q: What about the TGI (SK-OV-3 ovarian) of the same molecule?
A: > 100 µM

Q: What about the TGI (SN12C renal) of the same molecule?
A: > 100 µM

Q: And the TGI (SNB-19 CNS)?
A: > 91.4 µM

Q: And the TGI (SNB-75 CNS)?
A: 9.12 µM

Q: And the TGI (SR leukemia)?
A: > 100 µM

Q: And the TGI (SW-620 colon)?
A: > 100 µM

Q: And the TGI (T-47D breast)?
A: > 100 µM

Q: What about the TGI (TK-10 renal) of the same molecule?
A: > 100 µM

Q: And the TGI (U251 CNS)?
A: > 100 µM

Q: What about the TGI (UACC-257 melanoma) of the same molecule?
A: > 100 µM

Q: And the TGI (UACC-62 melanoma)?
A: > 100 µM

Q: And the TGI (UO-31 renal)?
A: > 100 µM

Q: Which results are given for `CSc1nc(SC)c2c(C)c(Br)[nH]c2n1`?
A: TGI (786-0 renal): > 100 µM; TGI (A498 renal): > 100 µM; TGI (A549 NSCLC): > 100 µM; TGI (ACHN renal): > 100 µM; TGI (BT-549 breast): > 100 µM; TGI (CAKI-1 renal): > 100 µM; TGI (CCRF-CEM leukemia): > 100 µM; TGI (COLO 205 colon): > 100 µM; TGI (DU-145 prostate): > 100 µM; TGI (EKVX NSCLC): > 100 µM; TGI (HCC-2998 colon): > 100 µM; TGI (HCT-116 colon): > 100 µM; TGI (HCT-15 colon): > 100 µM; TGI (HL-60(TB) leukemia): > 100 µM; TGI (HOP-62 NSCLC): > 100 µM; TGI (HOP-92 NSCLC): > 100 µM; TGI (HS 578T breast): > 100 µM; TGI (HT29 colon): > 100 µM; TGI (IGROV1 ovarian): > 100 µM; TGI (KM12 colon): > 100 µM; TGI (LOX IMVI melanoma): > 100 µM; TGI (M14 melanoma): > 100 µM; TGI (MALME-3M melanoma): > 100 µM; TGI (MCF7 breast): > 100 µM; TGI (MDA-MB-231 breast): > 100 µM; TGI (MDA-MB-435): > 100 µM; TGI (MDA-N): > 100 µM; TGI (MOLT-4 leukemia): > 100 µM; TGI (NCI-H226 lung): > 100 µM; TGI (NCI-H23 lung): > 100 µM; TGI (NCI-H460 lung): > 100 µM; TGI (NCI-H522 lung): > 100 µM; TGI (NCI/ADR-RES ovarian): > 100 µM; TGI (OVCAR-3 ovarian): > 100 µM; TGI (OVCAR-4 ovarian): > 100 µM; TGI (OVCAR-5 ovarian): > 100 µM; TGI (OVCAR-8 ovarian): > 100 µM; TGI (PC-3 prostate): > 100 µM; TGI (RPMI-8226 leukemia): > 100 µM; TGI (RXF 393 renal): > 100 µM; TGI (SF-268 CNS): > 100 µM; TGI (SF-295 CNS): > 100 µM; TGI (SF-539 CNS): > 100 µM; TGI (SK-MEL-2 melanoma): > 100 µM; TGI (SK-MEL-28 melanoma): > 100 µM; TGI (SK-MEL-5 melanoma): > 100 µM; TGI (SK-OV-3 ovarian): > 100 µM; TGI (SN12C renal): > 100 µM; TGI (SNB-19 CNS): > 100 µM; TGI (SNB-75 CNS): > 100 µM; TGI (SR leukemia): > 100 µM; TGI (SW-620 colon): > 100 µM; TGI (T-47D breast): > 100 µM; TGI (TK-10 renal): > 100 µM; TGI (U251 CNS): > 100 µM; TGI (UACC-62 melanoma): > 100 µM; TGI (UO-31 renal): > 100 µM
